Common to all, as to assay type: functional
Assay [1] has as its system Streptococcus pyogenes. As to the kind of experiment: Potency index, ratio of clarithromycin MIC to compound MIC for erythromycin-resistant Streptococcus pyogenes isolate R2.
Assay [2] relates to Streptococcus pneumoniae. As to the kind of experiment: Antibacterial activity against erythromycin-resistant Streptococcus pneumoniae B1 expressing ermB gene.
Assay [3] has as its system Streptococcus pneumoniae. Briefly: Potency index, ratio of azithromycin MIC to compound MIC for erythromycin-resistant Streptococcus pneumoniae AB11 expressing ermB/mefA gene.
The subject of assay [4] is Streptococcus pneumoniae. Briefly: Antibacterial activity against erythromycin-resistant Streptococcus pneumoniae AB11 expressing ermB/mefA gene.
For assay [5], the system named is Staphylococcus aureus. As to the kind of experiment: Antibacterial activity against erythromycin-susceptible Staphylococcus aureus ATCC 25923.
Assay [6] concerns Streptococcus pneumoniae. Briefly: Potency index, ratio of azithromycin MIC to compound MIC for erythromycin-resistant Streptococcus pneumoniae B1 expressing ermB gene.
In assay [7] the test system is Streptococcus pneumoniae. Briefly: Potency index, ratio of clarithromycin MIC to compound MIC for erythromycin-resistant Streptococcus pneumoniae A22072 expressing mefA gene.
Assay [8] has as its system Streptococcus pyogenes. As to the kind of experiment: Antibacterial activity against erythromycin-susceptible Streptococcus pyogenes isolate S2.
The test system of assay [9] is Staphylococcus aureus. As to the kind of experiment: Potency index, ratio of azithromycin MIC to compound MIC for erythromycin-susceptible Staphylococcus aureus ATCC 25923.
In assay [10] the test system is Streptococcus pneumoniae. As to the kind of experiment: Potency index, ratio of azithromycin MIC to compound MIC for erythromycin-resistant Streptococcus pneumoniae A22072 expressing mefA gene.
The test system of assay [11] is Streptococcus pyogenes. Briefly: Potency index, ratio of azithromycin MIC to compound MIC for erythromycin-resistant Streptococcus pyogenes isolate R2.
The next assay relates to Pseudomonas aeruginosa. Briefly: Antibacterial activity against Pseudomonas aeruginosa ATCC 27853.
A further assay concerns Escherichia coli. As to the kind of experiment: Antibacterial activity against Escherichia coli ATCC 25922.
In assay [12] the test system is Streptococcus pneumoniae. Briefly: Antibacterial activity against erythromycin-resistant Streptococcus pneumoniae A22072 expressing mefA gene.
For assay [13], the system named is Streptococcus pneumoniae. As to the kind of experiment: Potency index, ratio of clarithromycin MIC to compound MIC for erythromycin-resistant Streptococcus pneumoniae B1 expressing ermB gene.
The test system of assay [14] is Streptococcus pneumoniae. As to the kind of experiment: Potency index, ratio of clarithromycin MIC to compound MIC for erythromycin-resistant Streptococcus pneumoniae AB11 expressing ermB/mefA gene.
In assay [15] the test system is Streptococcus pyogenes. As to the kind of experiment: Antibacterial activity against erythromycin-resistant Streptococcus pyogenes isolate R2.
Assay [16] concerns Streptococcus pneumoniae. Briefly: Antibacterial activity against erythromycin-susceptible Streptococcus pneumoniae ATCC 49619.
In assay [17] the test system is Staphylococcus aureus. As to the kind of experiment: Antibacterial activity against methicillin-susceptible Staphylococcus aureus ATCC 29213.
Assay [18] has as its system Streptococcus pyogenes. Briefly: Potency index, ratio of azithromycin MIC to compound MIC for erythromycin-susceptible Streptococcus pyogenes isolate S2.

The term MIC denotes the lowest concentration found to suppress growth.

In brackets after ≈: the same amount, converted by molar mass.

As for `CC[C@H]1OC(=O)[C@H](C)[C@@H](O[C@H]2C[C@@](C)(OC)[C@@H](OC(=O)NCc3cn(Cc4ccc(Cl)cc4)nn3)[C@H](C)O2)[C@H](C)[C@@H](O[C@@H]2O[C@H](C)C[C@H](N(C)C)[C@H]2O)[C@](C)(O)C[C@@H](C)CN(C)[C@H](C)[C@@H](OC(=O)NCc2ccc(OC)cc2)[C@]1(C)O`, the Ratio in the assay on Streptococcus pyogenes [1] is on record as 128; in the assay with Streptococcus pneumoniae [3], 1024 - 2048; with Streptococcus pneumoniae [6] it was 1024 - 2133; in the assay with Streptococcus pneumoniae [7], 32 - 133; with Staphylococcus aureus [9] it was 31; in the assay with Streptococcus pneumoniae [10], 32 - 133. For the same molecule, the Ratio in the assay with Streptococcus pyogenes [11] is given as 128; in the assay on Streptococcus pneumoniae [13], 1024 - 2133; in the assay with Streptococcus pneumoniae [14] it was 1024 - 2048. The MIC was 0.125 µg/mL (≈ 0.108 µM) in the assay on Streptococcus pneumoniae [2]; 0.125 µg/mL (≈ 0.108 µM) in the assay with Streptococcus pneumoniae [4]; 0.008 µg/mL (≈ 0.00689 µM) against Staphylococcus aureus [5]; under 0.002 µg/mL against Streptococcus pyogenes [8]; 8 µg/mL (≈ 6.89 µM) against Pseudomonas aeruginosa; 16 µg/mL (≈ 13.8 µM) with Escherichia coli. Moreover, the MIC with Streptococcus pneumoniae [12] stood at 0.06 µg/mL (≈ 0.0517 µM); in the assay with Streptococcus pyogenes [15], 1 µg/mL (≈ 0.861 µM); in the assay on Streptococcus pneumoniae [16] it was 0.125 µg/mL (≈ 0.108 µM); with Staphylococcus aureus [17] it was 16 µg/mL (≈ 13.8 µM).
On to `CC[C@H]1OC(=O)[C@H](C)[C@@H](O[C@H]2C[C@@](C)(OC)[C@@H](OC(=O)NCc3cn(Cc4ccc(Cl)cc4Cl)nn3)[C@H](C)O2)[C@H](C)[C@@H](O[C@@H]2O[C@H](C)C[C@H](N(C)C)[C@H]2O)[C@](C)(O)C[C@@H](C)CN(C)[C@H](C)[C@@H](O)[C@]1(C)O`, for which the Ratio is given as 12.5 in the assay with Streptococcus pyogenes [18], 1024 in the assay on Streptococcus pneumoniae [3], 256 with Streptococcus pneumoniae [6] and 16 in the assay on Streptococcus pneumoniae [10]. Besides, the MIC in the assay on Streptococcus pneumoniae [2] was found to be 0.5 µg/mL (≈ 0.484 µM); against Streptococcus pneumoniae [4], 0.25 µg/mL (≈ 0.242 µM); against Staphylococcus aureus [5] it was 1 µg/mL (≈ 0.969 µM); in the assay with Streptococcus pyogenes [8] it was 0.016 µg/mL (≈ 0.0155 µM); with Pseudomonas aeruginosa, 32 µg/mL (≈ 31 µM); against Escherichia coli, 64 µg/mL (≈ 62 µM). Moreover, the MIC was 0.25 µg/mL (≈ 0.242 µM) with Streptococcus pneumoniae [12], 64 µg/mL (≈ 62 µM) against Streptococcus pyogenes [15], 0.25 µg/mL (≈ 0.242 µM) with Streptococcus pneumoniae [16] and 16 µg/mL (≈ 15.5 µM) with Staphylococcus aureus [17].
